Measurements published in PubChem BioAssay (NCI).
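Exposure lasted 48 hours, with cells grown in 96-well plates and compounds tested at five concentrations. GI50 is the concentration that inhibits growth by half. The concentration for full growth arrest is given as TGI.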

Key:
Assay in all cases: NCI anticancer screen, dose series, 48 h
[1] = test system: UO-31 renal
[2] = test system: HL-60(TB) leukemia
[3] = test system: KM12 colon
[4] = test system: K-562 leukemia
[5] = test system: HOP-92 NSCLC
[6] = test system: HCC-2998 colon
[7] = test system: EKVX NSCLC
[8] = test system: SK-OV-3 ovarian
[9] = test system: SK-MEL-5 melanoma
[10] = test system: SK-MEL-2 melanoma

SMILES	GI50 [1] [µM]	TGI [1] [µM]	GI50 [2] [µM]	TGI [2] [µM]	GI50 [3] [µM]	TGI [3] [µM]	GI50 [4] [µM]	TGI [4] [µM]	GI50 [5] [µM]	TGI [5] [µM]	GI50 [6] [µM]	TGI [6] [µM]	GI50 [7] [µM]	TGI [7] [µM]	GI50 [8] [µM]	TGI [8] [µM]	GI50 [9] [µM]	TGI [9] [µM]	TGI [10] [µM]
Cc1c(C)c2c(c(C)c1OC(=O)CCC(=O)[O-])CCC(C)(CCCCCCCCCCC[P+](c1ccccc1)(c1ccccc1)c1ccccc1)O2 (centres undefined)	0.744	1.42	0.14	0.566	0.177	0.705	0.182	50	0.078	0.276	0.214	0.809	0.222	1.45	0.157	0.538	0.0904	0.182	
COc1ccc(CN(CCN(C)C)c2ccccn2)cc1 (tested in a mixture with another compound)		> 100				> 100		> 100		> 100						> 100		> 100	> 100
CC(=O)O[C@@H]1[C@H](OC2CCCCC2(c2ccccc2)c2ccccc2)O[N+]([O-])=CC12CCCCC2 (some centres undefined)		31.3		5.65		31.2		> 100		59.2		32.6		33.7		26.2		28.2	
C/C=C/CC(C(=O)OCC)(N(C)C(=O)OC(C)(C)C)S(=O)(=O)c1ccc(C)cc1 (centres undefined)		> 100		> 100		> 100		> 100		> 100				> 100				> 100	> 100
CON(C)c1nc(N)c(C#N)c(C#N)c1C#N		> 10		> 10		> 10						> 10		> 10		> 10		> 10	> 10
CC(=O)Nc1ccc(NC(=O)CC(=O)Nc2ccc(NC(C)=O)cc2)cc1		> 100		> 100		> 100		> 100		> 100		36.7		> 100		65.9		> 100	
CC(NC(=O)Cc1ccc(OP(=O)(OCc2ccc([N+](=O)[O-])o2)N(C)CCCCCl)cc1)c1ccc(OCC2CCCCC2)c(C(N)=O)c1 (centres undefined)		8.45		5.06		5.91		9.23				2.98				11		2.97	5.89
CN1C(=O)c2ccccc2C(O)(c2ccccc2)C1(O)c1ccccc1 (centres undefined)		> 100				> 100		> 100		97.7		> 100		> 100		> 100		> 100	> 100
O=Cc1c2c(cc3c1CC1(C3)Cc3cc4c(c(C=O)c3C1)CCCC4)CCCC2				> 100		> 31.6		54.1		> 31.6		> 31.6		> 31.6		> 31.6		> 31.6	
COc1ccc(C=Nc2ccc(-c3nc4ccccc4s3)cc2)cc1OC		> 100				> 100		> 100		53.5		40		> 100		> 100		30.8	48.1
CC(=O)N1C(C(=O)NN2CCOCC2)CSC1c1ccccc1 (centres undefined)		> 100				> 100		> 100		> 100		> 100		> 100		> 100		> 100	> 100
CC(=O)Nc1ccc(-c2nnc(SCC(=O)Nc3cccc(C)c3)o2)cc1		26.3		> 100		22.6		> 100		26.2						81.5		23.1	28.6
COc1ccccc1-n1cnc2c1NC(C)(C)N=C2C(N)=O				> 100		> 100		> 100				> 100		> 100		> 100		> 100	> 100
CN1C(=O)N(C)C2(CCN(CC(CC3OCCO3)c3ccc(F)cc3)CC2)C1=O (centres undefined)		> 100		> 100				> 100		> 100				> 100		> 100		> 100	> 100
CC(=O)c1ccc(N2C(=O)C3c4[nH]c5ccccc5c4C4CCC(C(C)(C)C)CC4C3C2=O)cc1 (centres undefined)		> 100		76.9				> 100		47.1		35.8		94.1		> 100		58.8	
CC[C@H](C)[C@H](NC(=O)N(CCC#N)CCN(CCN(C(=O)N[C@@H](Cc1ccccc1)C(=O)OC)c1ccccc1)C(=O)N[C@H](C(=O)OC)C(C)C)C(=O)OC		33.8		4.24		39.7				23.3		39.5		69.2		41.2		38.4	43.4
c1ccc(-c2csc3c2-n2cccc2C3N2CCCC2)cc1 (centres undefined)		> 100		> 100		> 100		> 100		81.9		> 100		> 100				22.6	> 100
C/C=C1\CC(C(=O)OCC)CCCCCCC1=O (centres undefined)		> 100		> 100		> 100								> 100		> 100		> 100	> 100
CC(=N/NC(=S)N1CCCCCC1)/C(C)=N\NC(=S)N1CCCCCC1		54.3				17.9		> 100		2.77		18.6		10.6		8.85		10.8	
COc1ccc(-c2nc(-c3ccc(OC)cc3)n(-c3ccccc3)n2)cc1		> 100		> 100		> 100				> 100				> 100		> 100		> 100	> 100
N=c1c2sc3nc4ccccc4n3c2ncn1Cc1ccccc1		> 100				> 100				> 100		> 100		> 100		> 100		> 100	> 100
Cc1sc2c(c1C)C(=O)c1cccn1-2		> 100				> 100		> 100				> 100		> 100		> 100		> 100	> 100
CCOC(=O)COc1cc(-c2ccccc2F)nc2cc3c(cc12)OCO3						> 100		> 100		98.8		> 100		> 100		> 100		> 100	> 100

SMILES	GI50 [1] [µM]	TGI [1] [µM]	GI50 [2] [µM]	TGI [2] [µM]	GI50 [3] [µM]	TGI [3] [µM]	GI50 [4] [µM]	TGI [4] [µM]	GI50 [5] [µM]	TGI [5] [µM]	GI50 [6] [µM]	TGI [6] [µM]	GI50 [7] [µM]	TGI [7] [µM]	GI50 [8] [µM]	TGI [8] [µM]	GI50 [9] [µM]	TGI [9] [µM]	TGI [10] [µM]
CCCCn1c(-c2ccccc2)cs/c1=N\N=C1C=C(C(C)(C)C)C(=O)C(C(C)(C)C)=C1		> 100		> 100				> 100				> 100		> 100					> 100
COc1cc(C2CC(C)(N3CCOCC3)Oc3cc4c(cc32)OCO4)cc(OC)c1OC (centres undefined)		> 100				> 100		> 100		> 100		2.11		> 100		> 80.5		1.54	> 35.9
N/C(=N\N=C\c1cc2ccccc2s1)c1cnccn1		> 100		> 100		> 100		> 100		> 100				> 100		> 100		> 100	> 100
C=C1CC[C@@]2(C)[C@@H]([C@@H]1C)[C@H]1CC[C@@H]3[C@@]4(C)CC[C@H](O)C(C)(C)[C@@H]4CC[C@@]3(C)[C@]1(C)C[C@@H]2O		5.67		> 55.7		15.8				4.82				7.22		51.3		> 50.3	12.7
Cc1ccc(S(=O)(=O)N(CC(O)COc2ccccc2)c2c(F)c(F)cc(F)c2F)cc1 (centres undefined)		41.3		19.7		70.6				34.2		53.5		92.3		47.2		30.8	31.3
CC1=C(C(=O)NNC(=O)Cc2ccccc2)CC(C(=O)NNC(=O)Cc2ccccc2)=C(C)N1		> 100		> 100		> 100				> 100		> 100		> 100		> 100		> 100	> 100
Cc1ccsc1/C=N/NC1=NCCN1		> 100				> 100		> 100		> 100		> 100		> 100		> 100		> 100	> 100
COc1c(C)c(C/C=C(\C)CC/C=C(\C)CC/C=C(\C)CCC=C(C)C)c(OC)c(OC)c1OC		> 100				> 100		> 100		> 100		> 100		> 100		> 100		> 100	> 100
Oc1cc(O)c2c(c1)O[C@H](c1ccc(O)c(O)c1)[C@@H](O)C2		> 100		> 100		> 100		> 100		> 100		> 100		> 100				> 100	> 100
Cn1c(N/N=C/c2ccccc2)nc(-c2ccc3c(c2)OCO3)c(C#N)c1=O		> 100		> 100		> 100		> 100		67.2				> 100		> 100		> 100	> 100
NC(Cc1ccc(O)cn1)C(=O)NC(C(=O)O)c1ccccc1 (centres undefined)		> 100		> 100		> 100		> 100		> 100		> 100		> 100				> 100	
Nc1nc(Cl)cc(NCC2(CO)CCCCC2)n1		> 100		> 100		> 100		> 100		> 100				> 100		> 100		> 100	> 100
O=C(Nc1ccccc1[N+](=O)[O-])/C(=N/Nc1cccc(Cl)c1)c1c(O)c2ccccc2oc1=O		> 100				> 100		> 100		96.5		> 100		> 100		> 100		> 100	> 100
CN(C(=O)[C@H](NC(=O)OCc1ccccc1)c1ccccc1)C1CCCCC1N1CCCC1 (some centres undefined)		> 100				> 100		> 100		> 100				> 100		> 100		41.2	> 100
O=C(NN1C(=O)C(Cl)C1c1cccc(O)c1)c1ccccc1O (centres undefined)		> 100		> 100		> 100		> 100				> 100				> 100		> 100	> 100
O=C1c2ccccc2N=C(c2cc3c(cc2Cl)Sc2nccn2S3(=O)=O)OS(=O)(=O)N1c1ccccc1		91.3		60.7		> 100		74.5		> 100		36		> 100		> 100			
O=S(=O)(O)c1ccc2c(N=Nc3cccc4ccccc34)c(O)ccc2c1		> 100		> 100		> 100		> 100		> 100				> 100		> 100		> 100	> 100
CC1CC(=O)Nc2ccc(Cl)cc2N1C(=O)CN1CCC(CCCCN(C)C)CC1 (centres undefined)		> 100		> 100				> 100		> 100		> 100				> 100		> 100	
Cc1cc(C)cc(Nc2nnc3n2S(=O)(=O)c2cc(C)c(Cl)cc2S3)c1		> 100		> 100		33.2		> 100				16.6		52.2		> 100		24.7	15.8
Clc1ccc(Nc2ncco2)cc1Cl		> 10				> 10		> 10		> 10		> 10		> 10		> 10		> 10	
CC(C)OP(=O)(OC(C)C)C(=NCCO)NNc1ccc([N+](=O)[O-])cc1		> 100		> 100		> 100		> 100		> 100		> 100		> 100				> 100	> 100
COc1cccc(N/C(C)=C2/CCOC2=O)c1		> 10		> 10		> 10						> 10		> 10		> 10		> 10	> 10
COc1ccc2c(c1)CC[C@@H]1[C@@H]2CC[C@]2(C)/C(=N/OCCN3CCCC3)CC[C@@H]12		7.54		5.53		6.31		2.58		6.5		3.49		12.3				3.41	4.2
